Results published in patent US5618537A, “Plant-based medicaments for increasing the tone and modulating the tone of the smooth muscular organ” (Steigerwald Arzneimittelwerk GmbH, priority 1991, dated 1997).

Tests used:
[1] = test system: guinea-pig ileum; test: Increase in basal tone of resting isolated guinea-pig ileum (Magnus model); set-up: unit not given here; conditions: 40 μg/l; for Contraction induced by acetylcholine, Average value: average of 6
[2] = test system: carrageenan oedema; test: Carrageenan oedema model of the rat (paw volume, plethysmometer); format: in vivo; conditions: 4 mg/kg of body wt., 1/2 h before induction
Procedure: The carrageenan oedema model of the rat is an internationally recognised pharmacological method for uncovering clinically relevant anti-inflammatory agents.
The test substances were administered 1/2 h before induction of oedema; the control animals received the solvent (30% ethanol). The paw volume was measured with a plethysmometer before (0 value) oedema induction and 1, 2, 3, 4 and 6 hours after.
The anti-inflammatory action of the test substances was calculated according to the formula [formula] V=average value of the differences from the 0 value: drug group K=average value of the differences from the 0 value; control group

Structure (SMILES)	Contraction induced by acetylcholine (comparison for increase in basal tone) ([1]; Table 2 series (STW 5-II), Expt. 1)	Contraction induced by acetylcholine (comparison for increase in basal tone) ([1]; Table 2 series (STW 5-II), Expt. 2)	Contraction induced by acetylcholine (comparison for increase in basal tone) ([1]; Table 2 series (STW 5-II), Expt. 3)	Contraction induced by acetylcholine (comparison for increase in basal tone) ([1]; Table 2 series (STW 5-II), Expt. 4)	Contraction induced by acetylcholine (comparison for increase in basal tone) ([1]; Table 2 series (STW 5-II), Expt. 5)	Contraction induced by acetylcholine (comparison for increase in basal tone) ([1]; Table 2 series (STW 5-II), Expt. 6)	Contraction induced by acetylcholine, Average value ([1]; Table 2 series (STW 5-II))	Contraction induced by acetylcholine (comparison for increase in basal tone) ([1]; Table 3 series (STW 5), Expt. 1)	Contraction induced by acetylcholine (comparison for increase in basal tone) ([1]; Table 3 series (STW 5), Expt. 2)	Contraction induced by acetylcholine (comparison for increase in basal tone) ([1]; Table 3 series (STW 5), Expt. 3)	Contraction induced by acetylcholine (comparison for increase in basal tone) ([1]; Table 3 series (STW 5), Expt. 4)	Contraction induced by acetylcholine (comparison for increase in basal tone) ([1]; Table 3 series (STW 5), Expt. 5)	Contraction induced by acetylcholine (comparison for increase in basal tone) ([1]; Table 3 series (STW 5), Expt. 6)	Contraction induced by acetylcholine, Average value ([1]; Table 3 series (STW 5))	% inhibition of carrageenan oedema ([2]; 1 h after oedema induction) [%]	% inhibition of carrageenan oedema ([2]; 2 h after oedema induction) [%]	% inhibition of carrageenan oedema ([2]; 3 h after oedema induction) [%]	% inhibition of carrageenan oedema ([2]; 4 h after oedema induction) [%]	% inhibition of carrageenan oedema ([2]; 6 h after oedema induction) [%]
CC(=O)OCC[N+](C)(C)C [Acetylch., acetylcholine]	10.1	14.6	11.7	14.0	12.7	8.6	11.95	11.8	6.3	12.1	9.9	12.2	5.9	9.70	–	–	–	–	–
COc1ccc2c(c1)c(CC(=O)O)c(C)n2C(=O)c1ccc(Cl)cc1 [Indomethacin]	–	–	–	–	–	–	–	–	–	–	–	–	–	–	24.0	23.5	35.0	47.5	61.3
